Data: US20260250318A1, “COMPOSITIONS AND METHODS FOR CROSSING THE BLOOD BRAIN BARRIER” (VOYAGER THERAPEUTICS, INC., priority 2022, published 2026)

Columns and labels:
Details in all cases: synthetic library passage 3, intravenous, relative to wild-type AAV9
[1] = test system: brain, spinal cord, and DRG of the NHPs; assay: NGS fold enrichment of synthetic library (passage 3) in NHPs, first cross-species screen; assay type: in vivo, cynomolgus macaques (Macaca fascicularis)
Summary of the method: (§1)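 Synthetic capsid library (passage 3) was given intravenously […] to NHPs aged 2-4 years and to BALB/c and C57Bl/6 mice (n=3 each, 6-8 weeks). After about 28 days in vivo, tissue RNA was RT-PCR amplified and NGS-sequenced; values are fold enrichment per variant relative to wild-type AAV9.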

[2] = test system: brain; assay: NGS fold enrichment of synthetic library (passage 3) in C57Bl/6 mice, first cross-species screen; assay type: in vivo
Summary of the method: as §1

[3] = test system: brain; assay: NGS fold enrichment of synthetic library (passage 3) in BALB/c mice, first cross-species screen; assay type: in vivo
Summary of the method: as §1

[4] = RNA from spinal cord of NHPs, NGS
[5] = RNA from brain of C57Bl/6 mice, NGS
[6] = RNA from brain of BALB/c mice, NGS

Row | Sequence | Fold enrichment over AAV9 in the brain of NHPs ([1]; RNA NGS, brain of NHPs) | Fold enrichment over AAV9 in the spinal cord of NHPs ([1]; RNA NGS, spinal cord of NHPs) | Fold enrichment over AAV9 in the brain of Mice (C57Bl/6) ([2]; RNA NGS, brain of C57Bl/6 mice) | Fold enrichment over AAV9 in the brain of Mice (BALB/c) ([3]; RNA NGS, brain of BALB/c mice) | Fold enrichment over AAV9 in the brain of NHPs ([1]; RNA from brain of NHPs, NGS) | Fold enrichment over AAV9 in the spinal cord of NHPs [1, 4] | Fold enrichment over AAV9 in the brain of Mice (C57Bl/6) [2, 5] | Fold enrichment over AAV9 in the brain of Mice (BALB/c) [3, 6]
1 | GRGAVMASGQNQQT | 1.072 fold | 0.923 fold | 0.783 fold | 0.605 fold |  |  |  | 
2 | GRGGIPQSGQNQQT | 2.352 fold | 8.683 fold | 1.639 fold | 1.181 fold |  |  |  | 
3 | GRGGSMAETQNQQT | 1.024 fold | 2.853 fold | 0.799 fold | 0.669 fold |  |  |  | 
4 | GRGPKQSNIQNQQT |  |  |  |  | 1.125 fold | 0.737 fold | 0.771 fold | 2.490 fold
5 | GRGQHVSVANNQQT |  |  |  |  | 1.152 fold | 1.896 fold | 1.032 fold | 0.589 fold
6 | GRGQIYSTGGNQQT | 2.210 fold | 11.629 fold | 1.329 fold | 0.743 fold |  |  |  | 
7 | GRGQNQQHTGLATT | 1.650 fold | 6.174 fold | 1.134 fold | 0.691 fold |  |  |  | 
8 | GRGQNVSSVHRQQT | 5.404 fold | 0.000 fold | 1.206 fold | 0.691 fold |  |  |  | 
9 | GRGQVVSTHQNQQT | 1.607 fold | 3.318 fold | 0.931 fold | 0.561 fold |  |  |  | 
10 | GRGVITSSGQNHQT | 2.004 fold | 0.864 fold | 1.656 fold | 0.669 fold |  |  |  | 
11 | GRGVQQKLQQNQQT | 1.817 fold | 0.000 fold | 1.974 fold | 0.823 fold |  |  |  | 
12 | GRHLVTASGQNQQT | 1.411 fold | 2.885 fold | 0.648 fold | 0.404 fold |  |  |  | 
13 | GRLSNAHGGQNQQT |  |  |  |  | 1.245 fold | 0.839 fold | 1.036 fold | 0.725 fold
14 | GRMFSLGSGQNQQT | 1.836 fold | 8.429 fold | 1.630 fold | 1.174 fold |  |  |  | 
15 | GRTDSHTSGQNQQT | 2.913 fold | 1.510 fold | 1.299 fold | 0.704 fold |  |  |  | 
16 | GRVLHSHAGQNQQT | 2.513 fold | 0.826 fold | 1.294 fold | 0.908 fold |  |  |  | 
17 | GSAAMSVRGQNQQT | 1.029 fold | 2.386 fold | 0.202 fold | 0.287 fold |  |  |  | 
18 | GSAGISPSGQNQQT | 1.797 fold | 1.812 fold | 0.784 fold | 0.622 fold |  |  |  | 
19 | GSAQVSMVGQNQQT | 1.601 fold | 1.332 fold | 0.500 fold | 0.285 fold |  |  |  | 
20 | GSDFLGTHGQNQQT | 3.171 fold | 0.348 fold | 1.038 fold | 0.750 fold |  |  |  | 

Row | Sequence | Fold enrichment over AAV9 in the brain of NHPs ([1]; RNA NGS, brain of NHPs) | Fold enrichment over AAV9 in the spinal cord of NHPs ([1]; RNA NGS, spinal cord of NHPs) | Fold enrichment over AAV9 in the brain of Mice (C57Bl/6) ([2]; RNA NGS, brain of C57Bl/6 mice) | Fold enrichment over AAV9 in the brain of Mice (BALB/c) ([3]; RNA NGS, brain of BALB/c mice) | Fold enrichment over AAV9 in the brain of NHPs ([1]; RNA from brain of NHPs, NGS) | Fold enrichment over AAV9 in the spinal cord of NHPs [1, 4] | Fold enrichment over AAV9 in the brain of Mice (C57Bl/6) [2, 5] | Fold enrichment over AAV9 in the brain of Mice (BALB/c) [3, 6]
21 | GSDGKMHRGQNQQT |  |  |  |  | 1.227 fold | 0.000 fold | 1.826 fold | 0.776 fold
22 | GSDHSHRGGQNQQT |  |  |  |  | 1.174 fold | 0.504 fold | 0.818 fold | 0.331 fold
23 | GSDQNQQLGYSKQT |  |  |  |  | 1.283 fold | 0.000 fold | 0.853 fold | 0.660 fold
24 | GSDQNQQTMSSTRT | 1.003 fold | 2.428 fold | 1.306 fold | 0.835 fold |  |  |  | 
25 | GSDQNQRLTSSMQT | 1.479 fold | 0.164 fold | 0.875 fold | 0.670 fold |  |  |  | 
26 | GSDQSKRGDSNQQT |  |  |  |  | 1.225 fold | 0.639 fold | 0.479 fold | 0.267 fold
27 | GSEQTRQRGQNQQT |  |  |  |  | 1.333 fold | 2.172 fold | 0.574 fold | 0.815 fold
28 | GSEQTRQSGQNQQT |  |  |  |  | 1.321 fold | 0.514 fold | 0.734 fold | 0.900 fold
29 | GSEYGHKSGQNQQT | 6.308 fold | 2.750 fold | 5.198 fold | 5.332 fold |  |  |  | 
30 | GSFSMGYGGQNQQT |  |  |  |  | 1.393 fold | 18.476 fold | 1.908 fold | 1.030 fold
31 | GSFSMHTHGQNQQT | 2.535 fold | 0.118 fold | 1.027 fold | 0.693 fold |  |  |  | 
32 | GSFYPSSTGQNQQT | 2.047 fold | 2.374 fold | 0.420 fold | 0.277 fold |  |  |  | 
33 | GSGAITHMPQNQQT | 1.695 fold | 1.681 fold | 0.647 fold | 0.411 fold |  |  |  | 
34 | GSGAMPSHGQNQQT | 1.915 fold | 0.000 fold | 1.142 fold | 0.912 fold |  |  |  | 
35 | GSGASESHRQNQQT |  |  |  |  | 1.350 fold | 0.850 fold | 0.325 fold | 0.313 fold
36 | GSGASRMSIQNQQT | 1.045 fold | 0.111 fold | 0.801 fold | 0.417 fold |  |  |  | 
37 | GSGAVHLTAQNQQT |  |  |  |  | 1.306 fold | 1.668 fold | 0.541 fold | 0.466 fold
38 | GSGDDSRVGQNQQT |  |  |  |  | 1.172 fold | 0.191 fold | 0.466 fold | 0.156 fold
39 | GSGDLRISPQNQQT | 2.012 fold | 16.207 fold | 0.620 fold | 0.237 fold |  |  |  | 
40 | GSGDLVVSTQNQQT | 3.874 fold | 1.177 fold | 0.411 fold | 0.273 fold |  |  |  | 
